Test results as given in patent US20240109917A1 (ACTELION PHARMACEUTICALS LTD, priority 2020, published 2024).
Read-outs that look alike come from different tables or passages of the source.

How the values were obtained:
[1] = target: His6-TEV-PDGFRβ (557-1016) (Homo sapiens (Human), UniProt P09619); test: PDGFRβ HTRF Assay; type: biochemical; conditions: read-out: PDGFR HTRF IC50
How it was run: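 HTRF KinEASE-TK readout (665/620 nm ratio) of TK-biotin substrate phosphorylation by His-tagged PDGFRβ kinase domain. Enzyme and inhibitor preincubated 30 min, then ATP/substrate added for 3 h at room temperature before 60 min EDTA quench/detection.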

PDGFRβ = PDGFRβ (Rattus norvegicus (Rat), UniProt Q05030); test: PDGFRβ Cellular Assay (PDGFRb P-Y751 HTRF in A10 cells stimulated with PDGF-BB); type: cell-based
Chain of PDGFRβ (Q05030 32-1097): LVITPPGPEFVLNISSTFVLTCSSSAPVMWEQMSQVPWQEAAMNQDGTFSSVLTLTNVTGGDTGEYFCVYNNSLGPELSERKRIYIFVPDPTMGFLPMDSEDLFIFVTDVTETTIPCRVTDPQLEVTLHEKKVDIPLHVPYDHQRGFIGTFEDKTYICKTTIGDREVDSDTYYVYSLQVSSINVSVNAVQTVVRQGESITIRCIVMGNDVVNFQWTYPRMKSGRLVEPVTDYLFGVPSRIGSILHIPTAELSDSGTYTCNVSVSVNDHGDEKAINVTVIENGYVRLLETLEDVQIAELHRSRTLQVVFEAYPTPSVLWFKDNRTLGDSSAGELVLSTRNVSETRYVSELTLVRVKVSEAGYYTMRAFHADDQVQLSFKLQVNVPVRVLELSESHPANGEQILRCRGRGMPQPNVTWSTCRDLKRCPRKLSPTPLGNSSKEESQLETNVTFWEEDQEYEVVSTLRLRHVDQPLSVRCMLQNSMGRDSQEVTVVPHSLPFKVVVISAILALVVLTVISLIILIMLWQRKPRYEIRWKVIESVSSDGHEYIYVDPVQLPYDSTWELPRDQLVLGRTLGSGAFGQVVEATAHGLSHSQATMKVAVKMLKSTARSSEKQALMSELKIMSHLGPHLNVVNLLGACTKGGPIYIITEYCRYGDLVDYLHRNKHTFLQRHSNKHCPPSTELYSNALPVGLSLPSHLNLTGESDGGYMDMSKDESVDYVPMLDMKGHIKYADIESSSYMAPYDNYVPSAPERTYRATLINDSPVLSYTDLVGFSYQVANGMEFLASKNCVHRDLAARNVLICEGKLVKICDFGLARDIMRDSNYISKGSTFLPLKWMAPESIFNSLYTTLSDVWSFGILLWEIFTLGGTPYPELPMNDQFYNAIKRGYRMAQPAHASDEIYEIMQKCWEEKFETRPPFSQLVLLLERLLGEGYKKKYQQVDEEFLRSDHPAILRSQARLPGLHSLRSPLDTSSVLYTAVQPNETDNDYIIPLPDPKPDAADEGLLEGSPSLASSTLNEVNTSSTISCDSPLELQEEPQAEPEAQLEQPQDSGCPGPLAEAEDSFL
How it was run: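 Phospho-Y751 PDGFRβ was measured by HTRF in lysates of A10 rat cells. Cells received compound for 3 hours before PDGF-BB stimulation (100 ng/mL working stock).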

Chain of His6-TEV-PDGFRβ (557-1016) (P09619 557-1016): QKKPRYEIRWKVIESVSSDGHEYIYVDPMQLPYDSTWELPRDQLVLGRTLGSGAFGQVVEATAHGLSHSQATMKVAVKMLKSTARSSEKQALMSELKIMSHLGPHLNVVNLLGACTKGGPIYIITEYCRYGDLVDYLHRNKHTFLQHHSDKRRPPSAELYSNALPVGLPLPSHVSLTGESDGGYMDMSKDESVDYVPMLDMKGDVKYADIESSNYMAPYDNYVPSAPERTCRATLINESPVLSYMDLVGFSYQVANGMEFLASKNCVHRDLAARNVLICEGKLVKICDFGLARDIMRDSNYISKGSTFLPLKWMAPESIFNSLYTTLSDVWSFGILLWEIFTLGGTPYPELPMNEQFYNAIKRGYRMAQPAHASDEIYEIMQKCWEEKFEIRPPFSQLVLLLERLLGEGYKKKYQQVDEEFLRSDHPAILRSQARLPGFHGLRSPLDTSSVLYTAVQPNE

Compound | IC50 [1] [nM] | IC50 (PDGFRβ; read-out: PDGFR Cellular IC50) [nM] | IC50 (PDGFRβ; PDGFR Cellular IC50) [nM]
COCCn1cc(-c2cn3ncc(C(=O)Nc4cc(NC(=O)CN5CCC[C@@H]5C)cnc4C)c3s2)cn1 [Example 325, (S)-2-(1-(2-methoxyethyl)-1H-pyrazol-4-yl)-N-(2-methyl-5-(2-(2-methylpyrrolidin-1-yl)acetamido)pyridin-3-yl)pyrazolo[5,1-b]thiazole-7-carboxamide] | 0.8 | 10.7 | 
COc1ncccc1-c1cn2ncc(C(=O)Nc3cc(NC(=O)[C@@H]4C[C@H](C)CN4C)cnc3C)c2s1 [Example 317, N-(5-((2S,4S)-1,4-dimethylpyrrolidine-2-carboxamido)-2-methylpyridin-3-yl)-2-(2-methoxypyridin-3-yl)pyrazolo[5,1-b]thiazole-7-carboxamide] | 0.3 | 6.5 | 
Cc1ncc(NC(=O)OC[C@@H]2CCCN2C)cc1NC(=O)c1cnn2cc(-c3cccc4c3cnn4C)sc12 [Example 257, (S)-(1-methylpyrrolidin-2-yl)methyl (6-methyl-5-(2-(1-methyl-1H-indazol-4-yl)pyrazolo[5,1-b]thiazole-7-carboxamido)pyridin-3-yl)carbamate] | 0.2 | 13.1 | 
COCCn1cc(-c2cn3ncc(C(=O)Nc4cc(NC(=O)CN5CCC6(CC6)C5)cnc4C)c3s2)cn1 [Example 326, N-(5-(2-(5-azaspiro[2.4]heptan-5-yl)acetamido)-2-methylpyridin-3-yl)-2-(1-(2-methoxyethyl)-1H-pyrazol-4-yl)pyrazolo[5,1-b]thiazole-7-carboxamide] | 0.4 |  | 3
COc1ncccc1-c1cn2ncc(C(=O)Nc3cc(NC(=O)CN4CCOC(C)(C)C4)cnc3C)c2s1 [Example 319, N-(5-(2-(2,2-dimethylmorpholino)acetamido)-2-methylpyridin-3-yl)-2-(2-methoxypyridin-3-yl)pyrazolo[5,1-b]thiazole-7-carboxamide] | 0.3 | 2.7 | 
COc1ncccc1-c1cn2ncc(C(=O)Nc3cc(NC(=O)CN4CCCC5(CC5)C4)cnc3C)c2s1 [Example 321, N-(5-(2-(5-azaspiro[2.5]octan-5-yl)acetamido)-2-methylpyridin-3-yl)-2-(2-methoxypyridin-3-yl)pyrazolo[5,1-b]thiazole-7-carboxamide] | 0.2 | 1.2 | 
Cc1ncc(NC(=O)CN2CC(C)(C)C2)cc1NC(=O)c1cnn2cc(-c3cnn(C4CCNCC4)c3)sc12 [Example 293, N-(5-(2-(3,3-dimethylazetidin-1-yl)acetamido)-2-methylpyridin-3-yl)-2-(1-(piperidin-4-yl)-1H-pyrazol-4-yl)pyrazolo[5,1-b]thiazole-7-carboxamide] | 0.4 | 337 | 
Cc1ncc(NC(=O)CC(C)N2CCCCC2)cc1NC(=O)c1cnn2cc(-c3cnn(C)c3)sc12 (stereo not shown) [Example 307, 2-(1-methyl-1H-pyrazol-4-yl)-N-(2-methyl-5-(3-(piperidin-1-yl)butanamido)pyridin-3-yl)pyrazolo[5,1-b]thiazole-7-carboxamide] | 9.7 | 73.2 | 
COc1ncccc1-c1cn2ncc(C(=O)Nc3cc(NC(=O)OCCN4CCCC4(C)C)cnc3C)c2s1 [Example 254, 2-(2,2-dimethylpyrrolidin-1-yl)ethyl (5-(2-(2-methoxypyridin-3-yl)pyrazolo[5,1-b]thiazole-7-carboxamido)-6-methylpyridin-3-yl)carbamate] | 0.2 | 6.2 | 
Cc1ncc(NC(=O)CN2CC(C)(C)C2)cc1NC(=O)c1cnn2cc(-c3cnn(C)c3)sc12 [Example 22, N-(5-(2-(3,3-dimethylazetidin-1-yl)acetamido)-2-methylpyridin-3-yl)-2-(1-methyl-1H-pyrazol-4-yl)pyrazolo[5,1-b]thiazole-7-carboxamide] | 0.7 | 5.3 | 
Cc1ncc(NC(=O)OC[C@@H]2CCCN2C)cc1NC(=O)c1cnn2cc(-c3cccnc3O)sc12 [Example 256, (S)-(1-methylpyrrolidin-2-yl)methyl (5-(2-(2-hydroxypyridin-3-yl)pyrazolo[5,1-b]thiazole-7-carboxamido)-6-methylpyridin-3-yl)carbamate] | 0.6 |  | 1340
